Measured values as given in patent EP0003359A1, “Specific optical isomers of 2-aminoethyl-1,4-benzodioxanes, process for their preparation and their pharmaceutical compositions” (CIBA-GEIGY AG, priority 1978, dated 1979).
Structures can show the parent of a compound that is named as a salt.

What was measured:
[1] = tested on: genetisch hypertensive Ratten; assay: Blood pressure lowering in hypertensive rats (indirect sphygmomanometry on the tail); type: in vivo; details: perorale Dosen von 5 mg/kg/Tag und darunter, preferably as hydrochloride
Description: (§1) Die Verbindungen der Erfindung zeigen wertvolle pharmakologische Eigenschaften, in erster Linie hypotensive, antihypertensive und bradykardische Wirkungen, welche unter anderem durch ihre a- und ß-adrenergischblockierenden, vasodilatorischen und ihre hemmenden Effekte auf das zentrale sympatische Nervensystem zustandekommen. Diese Wirkungen können in Tierversuchen, vorzugsweise an Säugetieren, wie Ratten, Katzen oder Hunden, als Testobjekte nachgewiesen werden. Die Tiere können normotensiv oder hypertensiv, z.B. genetisch hypertensive Ratten sein. Die genannten Verbindungen können ihnen enteral oder parenteral, vorzugsweise oral oder intravenös, z.B. durch Gelatine-Kapseln oder in Form von Stärke enthaltenden Suspensionen bzw. wässerigen Lösungen, verabreicht werden. Die verwendete Dosis kann in einem Bereich von ungefähr zwischen 0,01 und 50 mg/kg/Tag, vorzugsweise ungefähr O,1 und 10 mg/kg/Tag, insbesondere ungefähr 1 und 5 mg/kg/Tag liegen. Die blutdrucksenkende Wirkung wird entweder direkt mit einem Katheter, der z.B. in die femurale Arterie des Hundes eingeführt ist, oder indirekt durch Sphygmomanometrie am Rattenschwanz, und einem Uebertragungsinstrument, welches den Blutdruck vor und nach der Verabreichung des Wirkstoffes in mm Hg angibt, registriert. […]

[2] = tested on: anesthätisierte, bilateral vagotomisierte Bastardhunde; assay: Bradycardic effect in anaesthetised, bilaterally vagotomised dogs with heart rate raised by electrical stimulation; type: in vivo; details: Canis lupus familiaris, intravenous, read-out: intravenöse Dosis, nach der die bradykardischen Wirkungen registriert werden können
Description: as §1

SMILES: C[C@H](CCc1ccccc1)NC[C@H](O)[C@H]1COc2ccccc2O1 [ℓ-erythro-2R-[2-(4-Phenyl-2R-butylamino)-1S-hydroxyäthyl]-1,4-benzodioxan-hydrochlorid]
- blutdrucksenkende Wirkung [1]: sehr wirksam
- minimal effective dose [2]: 0.03 mg/kg
